Test results: paper PMC9549944, “In vitro and in silico assessment of new beta amino ketones with antiplasmodial activity” (Revista da Sociedade Brasileira de Medicina Tropical, 2022)
Read-outs that look alike come from different tables or passages of the source.

Test system: P. falciparum strain W2 (chloroquine-resistant)
Test: In vitro antiplasmodial activity, SYBR Green-based assay
Assay type: cell-based
Conditions: for SI (selectivity index): ratio LD50 (WI-26VA4) / IC50 (P. falciparum W2)
Protocol: Ring-stage parasites were equally distributed in 96-well microculture plates. Serial dilutions of the compounds were performed ranging from 0.01 to 100 μg/mL. […] A fluorometer (Fluoroskan Ascent, Thermo Laboratories) with excitation at 485 nm and emission at […] was used to determine the viability of the parasites. All experiments were performed in triplicates.
Selectivity index (SI) is the ratio between the values of LD50 and IC50 […] of each compound tested.
IC50 and LD50 were determined using the equation of the curve obtained by plotting parasitemia reduction (%) or cellular death (%) vs. the concentration of the compound (log scale) using the GraphPad Prism software (version 5.0 for Windows, San Diego, California, USA). Due to the non-normality of the data distribution, the comparison of IC50 and LD50 between morpholine and piperidine was analyzed using the nonparametric Mann-Whitney U test. Statistical significance was defined at 5% (p<0.05).

[1] = Plasmodium falciparum, W2, read-out: IC50 ± SD (drug concentration that reduced parasite viability in 50%), P. falciparum W2 chloroquine-resistant, SYBR, mean and SD of triplicate experiments
[2] = read-out: IC50 ± SD (drug concentration that reduced parasite viability in 50%), P. falciparum W2 chloroquine-resistant, SYBR, mean and SD of triplicate experiments

Row | IC50 [1] [nM] | IC50 [2] [nM] | Structure (SMILES) | IC50 (Plasmodium falciparum, W2, read-out: IC50 ± SD (drug concentration that reduced parasite viability in 50%)) [nM] | SI (selectivity index)
1 | – | – | CCN(CC)CCCC(C)Nc1ccnc2cc(Cl)ccc12 (stereo not drawn) [Chloroquine (CQ), Chloroquine, reference compound] | 920 ± 10 | –
2 | < 980 | 980 ± 10 | O=C(CCN1CCOCC1)c1ccccc1 [Compound 1, 3-(morpholin-4-yl)-1-phenylpropan-1-one] | – | –
3 | < 3590 | 3590 ± 80 | O=C(CCN1CCCCC1)c1ccccc1 [Compound 2, 1-phenyl-3-(piperidin-1-yl)propan-1-one] | – | 9.46
4 | 32530 ± 20 | – | CC(CN1CCOCC1)C(=O)c1ccccc1 (stereo not drawn) [Compound 3, 2-methyl-3-(morpholin-4-yl)-1-phenylpropan-1-one] | – | > 3.07
5 | > 1000 | 780 ± 90 | CC(CN1CCCCC1)C(=O)c1ccccc1 (stereo not drawn) [Compound 4, 2-methyl-1-phenyl-3-(piperidein-1-yl)propan-1-one] | – | –
6 | 48000 ± 18500 | – | CCCCCCC(CN1CCCCC1)C(C)=O (stereo not drawn) [Compound 8, 3[(piperdin-1-yl)methyl]nonan-2-one] | – | 0.81
